Laboratory results: patent US8466186B2, “Compounds” (Boehringer Ingelheim International GmbH, priority 2010, dated 2013)

Target: T1, recombinant human mPGES-1 (Homo sapiens, UniProt O14684)
T1 construct: made in house; host or cells: Rosetta E. coli (membrane/microsome fraction)
T1 sequence (O14684 1-152): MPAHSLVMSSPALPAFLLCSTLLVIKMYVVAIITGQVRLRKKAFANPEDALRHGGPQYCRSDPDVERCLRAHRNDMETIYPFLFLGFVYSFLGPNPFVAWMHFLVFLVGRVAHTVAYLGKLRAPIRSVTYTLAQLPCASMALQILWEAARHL
Test: Assay A: mPGES-1 enzyme assay (HTRF detection of PGE2)
Format: biochemical
Conditions: biological assay A; microsomes from E. coli expressing recombinant human mPGES-1; read-out: mPGES-1 inhibitory effect IC50
Text: The aim of this assay is to determine the affinity of a test compound for the mPGES-1 enzyme.
• 1. Riendeau, D., R. Aspiotis, D. Ethier, Y. Gareau, E. Grimm, J. Guay, S. Guiral, H. Juteau, J. Mancini, N. Methot, J. Rubin, and R. Friesen, Inhibitors of the inducible microsomal prostaglandin E2 synthase (mPGES-1) derived from MK-886. Bioorg Med Chem Lett, 2005. 15(14): p. 3352-3355. • 2. Cote, B., L. Boulet, C. Brideau, D. Claveau, D. Ethier, R. Frenette, M. Gagnon, A. Giroux, J. Guay, S. Guiral, J. Mancini, E. Martins, F. Masse, N. Methot, D. Riendeau, J. Rubin, D. Xu, H. Yu, Y. Ducharme, and R. Friesen, Substituted phenanthrene imidazoles as potent, selective, and orally active mPGES-1 inhibitors. Bioorg Med Chem Lett, 2007. 17(24): p. 6816-6820. Assay A: mPGES-1 Enzyme Assay List of Reagents Used: • Glutathione (Sigma, G-4251) • Freeze culture in Rosetta E coli expression strain. • LB growth media with Ampillicillin (Amp) final concentration in culture 50 μg/mL • Chloroamphenicol stock 34 mg/mL (chloro) final concentration in culture 34 μg/mL • Sterile growth flasks for 500 mL-1 liter cultures • 0.1 M KP, buffer pH 7.4 • 9.25% HCl • PGH2 (0.25 mM) • Fe (II) Cl2 tetrahydrate, 99% (Sigma, 220229) • 384-well plate with compounds • 96-well plate, polypropylene (Thermo fast 96 skirted VWR) • 384-well plate polypropylene PCR plate (Greiner 785201) • Greiner 384-well plate pp (In vitro cat. no. 781280) • Adhesive sealing film for 96-well plates (Sigma-Aldrich) • Aluminium foil (PCR foil, 310-0030-127-471 from Labora) • PBS (GIBCO 14040) • Prostaglandin E2 Assay (Cisbio, cat. no. 62P2APEC) • Biomek FX robot (Beckman Coulter) • Biomek NX robot (Beckman Coulter) • Multidrop; micro or combi (ThermoLabsystems) • Plate reader: Safire2 (Tecan)
Microsomes from Rosetta E. coli bacteria expressing recombinant human mPGES-1 can be derived as described below:
Inoculate 5 mL LB with Amp and Chloro with bacteria from freeze culture. Incubate overnight at 37° C. with 200 rpm. Thereafter, inoculate 500-800 mL LB containing Amp and Chloro with the 5 mL on culture and grow to OD640 of 0.6-0.8. Chill the culture to +4° C. before induction. Induce the culture with IPTG at a final concentration of 400 μM. Express the protein at room temp 18-23° C. with 200 rpm shaking overnight.
The following steps can be performed on the following day: • 1. Spin down the cells in 250 mL centrifuge flasks for 15 min at 7000 rpm • 2. Dissolve the pellet from 250 mL culture in 12.5 mL homogenization buffer • 3. Disintegrate the cells by sonication, 4×10 seconds at 35% amplitude • 4. Add 2.5 mL MgCl2 (100 mM) and DNase 12.5 μL (0.8 mg/mL) and incubate on ice for 30 min • 5. Spin down the bacteria debris and save the supernatant, 7000 rpm for 15 min • 6. Isolate the protein containing membranes in the supernatant by ultracentrifugation 45000×g for 1 hour. • 7. Discard the supernatant and dissolve the pellet in 20 mM KPi buffer and aliquot the enzyme and store aliquots at −80° C.
Before each experiment is performed an aliquot of the enzyme is thawed and it can then be dissolved in 0.1 M KP, pH 7.4 buffer containing 2.5 mM GSH. 50 μL of this enzyme solution is subsequently dispensed in a 384-well plate at room temperature. 0.5 μL of the inhibitor dissolved in DMSO is thereafter added to each well and incubated for 25 minutes at room temperature. Subsequently, 2 μL of PGH2 dissolved in an appropriate solvent is added to each well and after one minute at room temperature, the acidified stop solution containing FeCl2 is added. 4 μL of the total volume is transferred to a separate plate and diluted 750-fold in two separate steps before quantification of PGE2.
In order to quantitate the amount of PGE2 that has been formed, a homogenous time resolved fluorescent (HTRF) detection of PGE2 can be performed by the use of a commercially available kit from CisBio essentially according to the manufacturer's protocol. […]

Cn1c(Nc2cc(CNC(=O)C3(C(F)(F)F)CC3)ccc2F)nc2cc(C#N)c(N3CCC(C(F)(F)F)CC3)cc21 [Example 113]
IC50: 11 nM

Cn1c(Nc2cc(CNC(=O)C3(C(F)(F)F)CC3)ccc2Cl)nc2cc(F)c(N3CCC(C(F)(F)F)CC3)c(F)c21 [Example 84, N-{4-Chloro-3-[5,7-difluoro-1-methyl-6-(4-trifluoromethyl-piperidin-1-yl)-1H-benzimidazol-2-ylamino]-benzyl}-1-trifluoromethyl-cyclopropanamide]
IC50: 7.3 nM

CC(=O)N1CCN(c2cc3c(cc2Cl)nc(Nc2cc(CNC(=O)C4(C(F)(F)F)CC4)ccc2Cl)n3C)CC1 [Example 73]
IC50: 61 nM

O=C(NCc1ccc(Cl)c(Nc2nc3cc(N4CCCC4)ccc3[nH]2)c1)c1ccc(OCc2ccccc2)cc1 [Example 21]
IC50: 30 nM

CC(C)(C)C(=O)NCc1ccc(OC(F)(F)F)c(Nc2nc3cc(C#N)c(N4CCCC(C(F)(F)F)C4)cc3[nH]2)c1 (centres unmarked) [Example 117, N-{3-(5-Cyano-6-[3-trifluoromethyl-piperidin-1-yl)-1H-benzo[d]imidazol-2-ylamino]-4-trifluoromethoxy-benzyl}-2,2-dimethyl-propionamide]
IC50: 120 nM

CC(C)(C)C(=O)NCc1ccc(Cl)c(Nc2nc3cc(Cl)c(N4CCC5(CC5)C4)cc3[nH]2)c1 [Example 4, N-{3-[6-(5-Aza-spiro[2.4]hept-5-yl)-5-chloro-1H-benzimidazol-2-ylamino]-4-chloro-benzyl}-2,2-dimethyl-propionamide]
IC50: 24 nM

CN1CCN(c2cc3c(cc2Cl)nc(Nc2cc(CNC(=O)C4(C(F)(F)F)CC4)ccc2Cl)n3C)CC1 [Example 11, N-{4-Chloro-3-[5-chloro-1-methyl-6-(4-methyl-piperazin-1-yl)-1H-benzimidazol-2-ylamino]-benzyl}-1-trifluoromethyl-cyclopropanecarboxamide]
IC50: 140 nM

Cn1c(Nc2cc(CNC(=O)C3(C(F)(F)F)CC3)c(F)cc2Cl)nc2cc(Cl)c(N3CCC(C(F)(F)F)CC3)cc21 [Example 114, N-{4-Chloro-2-fluoro-5-[5-chloro-1-methyl-6-(4-trifluoromethyl-piperidin-1-yl)-1H-benzimidazol-2-ylamino]-benzyl}-1-trifluoromethyl-cyclopropanamide]
IC50: 4.8 nM

Cn1c(Nc2cc(CNC(=O)C(C)(F)F)ccc2Cl)nc2cc(Cl)c(N3CCC(c4ccccc4)CC3)cc21 [Example 95]
IC50: 2.1 nM

Cn1c(Nc2cc(CNC(=O)C3(C(F)(F)F)CC3)ccc2Cl)nc2cc(Cl)c(N3CCC(c4ccccc4)CC3)cc21 [Example 76, N-{4-Chloro-3-[5-chloro-1-methyl-6-(4-phenyl-piperidin-1-yl)-1H-benzimidazol-2-ylamino]-benzyl}-1-trifluoromethyl-cyclopropanamide]
IC50: 3.1 nM

Cn1c(Nc2cc(CNC(=O)C3(C(F)(F)F)CC3)cc(F)c2Cl)nc2cc(Cl)c(N3CCC(C(F)(F)F)CC3)cc21 [Example 116, N-{4-Chloro-5-fluoro-3-[5-chloro-1-methyl-6-(4-trifluoromethyl-piperidin-1-yl)-1H-benzimidazol-2-ylamino]-benzyl}-1-trifluoromethyl-cyclopropanamide]
IC50: 5.9 nM

Cn1c(Nc2cc(CNC(=O)C(C)(F)F)ccc2Cl)nc2cc(Cl)c(N3CCCC(C(F)(F)F)C3)cc21 (centres unmarked) [Example 15]
IC50: 3 nM

O=C(NCc1ccc(Cl)c(Nc2nc3cc(Cl)c(N4CCC(C(F)(F)F)CC4)cc3n2CC2CC2)c1)C1(C(F)(F)F)CC1 [Example 88]
IC50: 5.3 nM

Cn1c(Nc2cc(CNC(=O)C3(C(F)(F)F)CC3)ccc2Cl)nc2cc(Cl)c(N3CCCC(C(F)(F)F)C3)cc21 (centres unmarked) [Example 124]
IC50: 2.6 nM

COCCn1c(Nc2cc(CNC(=O)C3(C(F)(F)F)CC3)ccc2Cl)nc2cc(Cl)c(N3CCC(C(F)(F)F)CC3)cc21 [Example 81]
IC50: 6.7 nM

O=C(NCc1ccc(Cl)c(Nc2nc3cc(Cl)c(N4CCCC(C(F)(F)F)C4)cc3[nH]2)c1)C1(C(F)(F)F)CC1 (centres unmarked) [Example 72]
IC50: 11 nM

CC(C(=O)NCc1ccc(Cl)c(Nc2nc3cc(Cl)c(N4CCCC(C(F)(F)F)C4)cc3n2C)c1)C(F)(F)F (centres unmarked) [Example 13]
IC50: 2.6 nM

Cn1c(Nc2cc(CNC(=O)C3(C(F)(F)F)CC3)ccc2Cl)nc2cc(Cl)c(N3CCC(C)(C)CC3)cc21 [Example 78]
IC50: 1.7 nM

Cn1c(Nc2cc(CN[S+]([O-])C(C)(C)C)ccc2C(F)(F)F)nc2cc(Cl)c(N3CCC(C(F)(F)F)CC3)cc21 (centres unmarked) [Example 109, N-(4-Trifluoromethyl-3-(5-chloro-1-methyl-6-(4-trifluoromethyl-piperidin-1-yl)-1H-benzo[d]imidazol-2-ylamino)benzyl)-2-methylpropane-2-sulfinamide]
IC50: 5.2 nM

O=S(=O)(NCc1ccc(Cl)c(Nc2nc3cc(N4CCCC4)ccc3[nH]2)c1)c1ccco1 [Example 29]
IC50: 105 nM

Cn1c(Nc2cc(CNC(=O)C3(C(F)(F)F)CC3)ccc2Cl)nc2cc(F)c(N3CCC(C(F)(F)F)CC3)cc21 [Example 86, N-{4-Chloro-3-[5-fluoro-1-methyl-6-(4-trifluoromethyl-piperidin-1-yl)-1H-benzimidazol-2-ylamino]-benzyl}-1-trifluoromethyl-cyclopropanamide]
IC50: 7.1 nM

Cn1c(Nc2cc(CNS(=O)(=O)C(C)(C)C)ccc2Cl)nc2cc(Cl)c(N3CCC(C(F)(F)F)CC3)cc21 [Example 99, N-(4-Chloro-3-(5-chloro-1-methyl-6-(4-trifluoromethyl-piperidin-1-yl)-1H-benzo[d]imidazol-2-ylamino)benzyl)-2-methylpropane-2-sulfonamide]
IC50: 4 nM

Cn1c(Nc2cc(CNC(=O)C3(C(F)(F)F)CC3)ccc2F)nc2cc(Cl)c(N3CCC(C(F)(F)F)CC3)cc21 [Example 111, N-{4-Fluoro-3-[5-chloro-1-methyl-6-(4-trifluoromethyl-piperidin-1-yl)-1H-benzimidazol-2-ylamino]-benzyl}-1-trifluoromethyl-cyclopropanamide]
IC50: 19 nM

Cn1c(Nc2cc(CNC(=O)C(C)(C)C)ccc2C(F)(F)F)nc2cc(Cl)c(N3CCC(C(F)(F)F)CC3)cc21 [Example 104]
IC50: 2.4 nM

CC1(C(=O)NCc2ccc(Cl)c(Nc3nc4cc(N5CCCC5)ccc4[nH]3)c2)CCCC1 [Example 28]
IC50: 24 nM

O=C(NCc1ccc(Cl)c(Nc2nc3cc(Cl)c(N4CCC[C@@H]4CO)cc3[nH]2)c1)C1(C(F)(F)F)CC1 [Example 9, (R)—N-{4-Chloro-3-[5-chloro-6-(2-hydroxymethyl-pyrrolidin-1-yl)-1H-benzimidazol-2-ylamino]-benzyl}-1-trifluoromethyl-cyclopropanecarboxamide]
IC50: 143 nM

Cn1c(Nc2cc(CNC(=O)C(C)(F)F)ccc2C(F)(F)F)nc2cc(Cl)c(N3CCC(C(F)(F)F)CC3)cc21 [Example 106]
IC50: 5.7 nM

Cn1c(Nc2cc(CNC(=O)C3(O)CC3)ccc2C(F)(F)F)nc2cc(Cl)c(N3CCC(C(F)(F)F)CC3)cc21 [Example 107]
IC50: 13 nM

CC1(C(=O)NCc2ccc(Cl)c(Nc3nc4cc(Cl)c(N5CCOCC5)cc4[nH]3)c2)CCCCC1 [Example 121]
IC50: 60 nM
